This passage reports TGI and GI50 results from PubChem BioAssay (NCI).

Structures are written as SMILES.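 Cultured in 96-well plates, cells were exposed to test compound for 48 hours across five concentrations. GI50 = concentration required for 50% inhibition of growth. TGI denotes the concentration required for complete inhibition of growth.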

What all share (experiment): DTP human tumour cell line panel, 48 h
Experiment [1] relates to T-47D breast.
The test system of experiment [2] is UACC-257 melanoma.
Experiment [3] concerns K-562 leukemia.
The test system of experiment [4] is 786-0 renal.
Experiment [5] has as its system COLO 205 colon.
Experiment [6] has as its system HL-60(TB) leukemia.
The subject of experiment [7] is MALME-3M melanoma.
The subject of experiment [8] is HCC-2998 colon.
The subject of experiment [9] is MDA-MB-231 breast.
Experiment [10] has as its system A549 NSCLC.
Experiment [11] deals with OVCAR-5 ovarian.

As usually defined, the TGI is the concentration at which net growth stops. A lower TGI goes with more potent growth arrest. Take `O=Cc1[nH]c(=O)[nH]c(=O)c1CCl`: the TGI in [1] was above 100 µM; in experiment [2], above 100 µM; in experiment [3], above 100 µM; in experiment [4] it was above 100 µM; in [5] it was above 100 µM; in [6], above 72.9 µM. Besides, the TGI in experiment [7], in experiment [8], in [9], in experiment [10] and in experiment [11] was above 100 µM in each case.

As to `CCOC(=O)NC(NNc1ccc([N+](=O)[O-])cc1[N+](=O)[O-])(C(F)(F)F)C(F)(F)F`, the TGI in experiment [1] was above 100 µM; in [2] it was above 100 µM; in experiment [3], above 100 µM; in experiment [4], above 100 µM; in experiment [5], 29.9 µM; in experiment [6], 58.9 µM. For the same molecule, the TGI in [7], in experiment [8], in [9], in experiment [10] and in experiment [11] was above 100 µM each time.

On to `CCOC(=O)/C=C(\C(=O)OCC)n1cnc2c(N)ncnc21`, for which the TGI in experiment [1] worked out at 14 µM; in [2], 27.8 µM; in [3], 5.52 µM; in experiment [4], 10.2 µM; in experiment [5] it was 4.6 µM; in experiment [6] it was 2.78 µM. Further, the TGI was found to be 15.8 µM in [7]; 30.2 µM in [8]; 21.8 µM in experiment [9]; 32.2 µM in experiment [10]; 14 µM in experiment [11].

With `COc1ccc(N=Nc2c(C)c(C#N)c(=S)n(C3OC(COC(C)=O)C(OC(C)=O)C(OC(C)=O)C3OC(C)=O)c2-c2ccccc2)cc1` (stereo not drawn), the TGI in experiment [1] was 41.2 µM; in [2] it was 75.8 µM; in experiment [3] it was above 100 µM; in experiment [4], 10.4 µM; in experiment [5], 22.9 µM; in experiment [6], above 100 µM. Further, the TGI in [7] is 29.9 µM; in [8], above 100 µM; in experiment [9] it was 22.3 µM; in experiment [10] it was 29.7 µM; in [11], 30.8 µM.

Consider `O=C1OC2c3ccccc3C(=O)C2(c2ccccc2)N1c1ccccc1` (stereo not drawn), for which the TGI in experiment [1], in experiment [2], in experiment [3], in [4], in experiment [5] and in [6] was above 200 µM throughout. The TGI in experiment [7], in experiment [8], in experiment [9], in [10] and in experiment [11] was above 200 µM each time.

Turning to `Cc1nc(N)c(N2CCN(Cc3ccccc3)CC2)c(=O)[nH]1`, the TGI in experiment [1], in [2], in experiment [3], in experiment [4], in experiment [5] and in [6] was above 100 µM in each case. Also, the TGI in experiment [7], in [8], in experiment [9], in experiment [10] and in experiment [11] was above 100 µM each time.

As a reminder, the GI50 is the concentration giving 50% growth inhibition. `CC(=O)[O-].[Ni].c1ccc(/C(=N\Nc2ccccn2)c2ccccn2)cc1`: the TGI in experiment [1] came to 15.6 µM; in experiment [2], 23.2 µM; in [3] it was 28.1 µM; in experiment [4] it was 22.1 µM; in [6] it was 0.61 µM; in experiment [7], 20.9 µM. Further, the concentration for total growth inhibition (TGI) in [8] was 19.8 µM; in experiment [9], 22.8 µM; in experiment [10], 49.2 µM; in [11] it was 47.3 µM. Moreover, the GI50 in experiment [5] was 0.0121 µM; in experiment [9], 6.01 µM.

`O=C1c2ccccc2C(=O)c2c1oc(=O)c1ccccc21`: the TGI in [1] worked out at 13.9 µM; in experiment [2], 6.75 µM; in experiment [3], 17.9 µM; in experiment [4], 14 µM; in [5], 24.7 µM; in experiment [6], 1.71 µM. For the same molecule, the TGI is 5.79 µM in experiment [7]; 6.96 µM in experiment [8]; 13.8 µM in [9]; above 25 µM in experiment [10]; 14.4 µM in [11].

In the case of `COc1ccc(-c2oc3cc(OC)c(OC)c(OC)c3c(=O)c2OC)cc1OC`, the TGI was above 100 µM in experiment [1]; above 100 µM in experiment [2]; above 100 µM in experiment [3]; above 100 µM in experiment [4]; above 100 µM in experiment [5]; 83.4 µM in experiment [6]. Moreover, the total growth inhibition concentration (TGI) in experiment [7], in experiment [8], in experiment [9], in experiment [10] and in [11] was above 100 µM throughout.

Regarding `NC1=NN(c2ccccc2)C2(c3ccncc3C(=O)O)C1C(N)=NN2c1ccccc1` (stereo not drawn), the TGI in [1], in [2], in experiment [3], in experiment [4], in experiment [5] and in [6] was above 100 µM in each case. Also, the TGI in experiment [7], in [8], in experiment [9], in [10] and in experiment [11] was above 100 µM throughout.

`O=C1C=CC[C@H](/C=C/C[C@@H](O)C[C@H](O)/C=C/c2ccccc2)O1`: the concentration for total growth inhibition (TGI) turned out to be 33.3 µM in [1]; 26.9 µM in [2]; 42.3 µM in [3]; 29.6 µM in experiment [4]; 20.4 µM in experiment [5]; 17.7 µM in experiment [6]. Further, the TGI in [7] turned out to be 28.6 µM; in experiment [8], 18.6 µM; in experiment [9], 22.2 µM; in [10], 33.5 µM; in experiment [11], 29.5 µM.

Turning to `COc1cc(-c2c3c([nH]c(=O)c2C#N)-c2cc([N+](=O)[O-])ccc2CCC3)cc(OC)c1OC`, the total growth inhibition concentration (TGI) in [1] is above 100 µM; in [2], above 100 µM; in [3], above 100 µM; in [4], 65.2 µM; in [5] it was 43.3 µM; in experiment [6], 72.7 µM. In addition, the TGI turned out to be 73.9 µM in [7]; 46.1 µM in experiment [8]; 79.2 µM in [9]; 81.8 µM in experiment [10]; 69.1 µM in experiment [11].
